Test results published in US10059688B2, “Protein tyrosine kinase modulators and methods of use” (BETTA PHARMACEUTICALS CO., LTD., priority 2013, dated 2018).

Legend:
Assay in all cases: Kinase assay, single dose inhibition (Millipore, 33P-ATP filter binding)
Type in all cases: biochemical
Conditions in all cases: 0.1 μM test compound, 10 μM ATP; remaining activity relative to DMSO control = 100%
ALK (h) = ALK (h) (Homo sapiens (Human), UniProt Q9UM73)
Procedure: (§1) Assay conditions included 10 μM ATP and 100 nM test compounds.
(§2) All reactions are initiated by the addition of the MgATP mix. After incubation for 40 minutes at room temperature, the reaction is stopped by the addition of 3% phosphoric acid solution. 10 μL of the reaction is then spotted onto a P30 filtermat and washed three times for 5 minutes in 75 mM phosphoric acid and once in methanol prior to drying and scintillation counting. This assay is performed by Millipore. The experiment is carried out in duplicate. The value for the control sample (DMSO) was set to 100%, and the values for the compound-treated samples were expressed as activity relative to the control sample.

EGFR (h) = EGFR (h) (Homo sapiens (Human), UniProt P00533)
Procedure: as §1, §2

EGFR (L858R) (h) = EGFR (L858R) (h) (Homo sapiens (Human), UniProt P00533, L858R)
Procedure: as §1, §2

EGFR (T790M) (h) = EGFR (T790M) (h) (Homo sapiens (Human), UniProt P00533, T790M)
EGFR (T790M, L858R) (h) = EGFR (T790M, L858R) (h) (Homo sapiens (Human), UniProt P00533, L858R/T790M)
EGFR (T790M, L858R) (h), sequence (P00533 25-1210 T790M/L858R): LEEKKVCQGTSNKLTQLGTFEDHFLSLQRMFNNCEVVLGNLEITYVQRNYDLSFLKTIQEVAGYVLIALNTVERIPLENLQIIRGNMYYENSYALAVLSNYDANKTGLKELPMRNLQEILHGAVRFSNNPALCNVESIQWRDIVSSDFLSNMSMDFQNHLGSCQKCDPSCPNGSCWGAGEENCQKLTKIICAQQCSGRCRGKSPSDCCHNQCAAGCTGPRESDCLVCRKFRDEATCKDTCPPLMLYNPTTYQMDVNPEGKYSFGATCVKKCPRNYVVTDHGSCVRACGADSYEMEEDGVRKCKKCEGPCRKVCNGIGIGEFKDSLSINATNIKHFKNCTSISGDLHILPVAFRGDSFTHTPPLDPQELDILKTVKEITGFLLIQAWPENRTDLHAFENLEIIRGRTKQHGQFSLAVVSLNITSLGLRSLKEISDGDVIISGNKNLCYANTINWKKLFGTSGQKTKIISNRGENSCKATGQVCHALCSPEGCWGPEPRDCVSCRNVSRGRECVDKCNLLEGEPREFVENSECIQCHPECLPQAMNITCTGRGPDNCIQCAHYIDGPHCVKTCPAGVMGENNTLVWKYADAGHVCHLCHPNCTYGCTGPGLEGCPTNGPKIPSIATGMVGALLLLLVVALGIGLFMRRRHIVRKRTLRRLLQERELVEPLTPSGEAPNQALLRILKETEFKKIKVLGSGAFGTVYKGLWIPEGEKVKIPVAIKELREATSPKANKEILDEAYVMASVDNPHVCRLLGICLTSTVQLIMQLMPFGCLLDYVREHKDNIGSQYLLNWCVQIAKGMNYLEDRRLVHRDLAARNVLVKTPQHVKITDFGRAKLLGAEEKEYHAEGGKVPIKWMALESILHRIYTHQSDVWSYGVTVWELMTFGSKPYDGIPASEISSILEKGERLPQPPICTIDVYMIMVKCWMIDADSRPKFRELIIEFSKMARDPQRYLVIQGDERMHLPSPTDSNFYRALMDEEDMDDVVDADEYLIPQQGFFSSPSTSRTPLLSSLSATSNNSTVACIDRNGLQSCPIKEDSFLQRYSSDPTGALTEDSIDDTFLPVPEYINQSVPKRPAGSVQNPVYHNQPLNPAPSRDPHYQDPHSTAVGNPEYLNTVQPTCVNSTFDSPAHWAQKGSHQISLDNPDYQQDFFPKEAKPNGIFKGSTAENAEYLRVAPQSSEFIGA

EGFR (T790M) (h), sequence (P00533 25-1210 T790M): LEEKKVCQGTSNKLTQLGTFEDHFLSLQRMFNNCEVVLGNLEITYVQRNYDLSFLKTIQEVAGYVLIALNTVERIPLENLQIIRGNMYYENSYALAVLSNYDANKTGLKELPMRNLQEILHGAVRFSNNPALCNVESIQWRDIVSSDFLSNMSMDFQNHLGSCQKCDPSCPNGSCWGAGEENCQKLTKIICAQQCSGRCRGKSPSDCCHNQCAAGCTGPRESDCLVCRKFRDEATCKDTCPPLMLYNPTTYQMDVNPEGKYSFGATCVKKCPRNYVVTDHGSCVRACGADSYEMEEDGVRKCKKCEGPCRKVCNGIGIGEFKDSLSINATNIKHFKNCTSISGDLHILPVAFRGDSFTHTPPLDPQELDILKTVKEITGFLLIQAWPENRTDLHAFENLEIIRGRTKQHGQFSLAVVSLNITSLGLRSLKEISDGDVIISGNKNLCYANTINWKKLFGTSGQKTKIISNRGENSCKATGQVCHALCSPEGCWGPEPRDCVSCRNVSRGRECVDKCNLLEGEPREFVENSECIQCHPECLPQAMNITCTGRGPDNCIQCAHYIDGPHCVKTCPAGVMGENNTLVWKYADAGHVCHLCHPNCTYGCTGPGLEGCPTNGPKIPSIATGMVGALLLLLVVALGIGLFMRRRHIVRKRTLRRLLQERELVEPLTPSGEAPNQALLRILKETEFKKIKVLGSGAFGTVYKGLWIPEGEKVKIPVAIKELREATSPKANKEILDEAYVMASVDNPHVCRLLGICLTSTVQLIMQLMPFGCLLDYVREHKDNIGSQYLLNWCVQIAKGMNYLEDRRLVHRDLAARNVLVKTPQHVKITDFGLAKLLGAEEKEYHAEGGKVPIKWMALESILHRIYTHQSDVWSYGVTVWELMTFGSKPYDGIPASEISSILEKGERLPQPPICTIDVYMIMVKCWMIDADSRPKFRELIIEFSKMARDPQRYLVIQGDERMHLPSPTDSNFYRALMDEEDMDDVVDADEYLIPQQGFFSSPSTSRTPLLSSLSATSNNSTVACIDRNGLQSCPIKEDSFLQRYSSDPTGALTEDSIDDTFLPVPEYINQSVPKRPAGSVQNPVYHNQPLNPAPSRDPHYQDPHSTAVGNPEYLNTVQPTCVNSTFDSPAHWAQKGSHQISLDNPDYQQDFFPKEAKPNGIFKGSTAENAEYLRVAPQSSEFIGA
ALK (h), sequence (Q9UM73 19-1620): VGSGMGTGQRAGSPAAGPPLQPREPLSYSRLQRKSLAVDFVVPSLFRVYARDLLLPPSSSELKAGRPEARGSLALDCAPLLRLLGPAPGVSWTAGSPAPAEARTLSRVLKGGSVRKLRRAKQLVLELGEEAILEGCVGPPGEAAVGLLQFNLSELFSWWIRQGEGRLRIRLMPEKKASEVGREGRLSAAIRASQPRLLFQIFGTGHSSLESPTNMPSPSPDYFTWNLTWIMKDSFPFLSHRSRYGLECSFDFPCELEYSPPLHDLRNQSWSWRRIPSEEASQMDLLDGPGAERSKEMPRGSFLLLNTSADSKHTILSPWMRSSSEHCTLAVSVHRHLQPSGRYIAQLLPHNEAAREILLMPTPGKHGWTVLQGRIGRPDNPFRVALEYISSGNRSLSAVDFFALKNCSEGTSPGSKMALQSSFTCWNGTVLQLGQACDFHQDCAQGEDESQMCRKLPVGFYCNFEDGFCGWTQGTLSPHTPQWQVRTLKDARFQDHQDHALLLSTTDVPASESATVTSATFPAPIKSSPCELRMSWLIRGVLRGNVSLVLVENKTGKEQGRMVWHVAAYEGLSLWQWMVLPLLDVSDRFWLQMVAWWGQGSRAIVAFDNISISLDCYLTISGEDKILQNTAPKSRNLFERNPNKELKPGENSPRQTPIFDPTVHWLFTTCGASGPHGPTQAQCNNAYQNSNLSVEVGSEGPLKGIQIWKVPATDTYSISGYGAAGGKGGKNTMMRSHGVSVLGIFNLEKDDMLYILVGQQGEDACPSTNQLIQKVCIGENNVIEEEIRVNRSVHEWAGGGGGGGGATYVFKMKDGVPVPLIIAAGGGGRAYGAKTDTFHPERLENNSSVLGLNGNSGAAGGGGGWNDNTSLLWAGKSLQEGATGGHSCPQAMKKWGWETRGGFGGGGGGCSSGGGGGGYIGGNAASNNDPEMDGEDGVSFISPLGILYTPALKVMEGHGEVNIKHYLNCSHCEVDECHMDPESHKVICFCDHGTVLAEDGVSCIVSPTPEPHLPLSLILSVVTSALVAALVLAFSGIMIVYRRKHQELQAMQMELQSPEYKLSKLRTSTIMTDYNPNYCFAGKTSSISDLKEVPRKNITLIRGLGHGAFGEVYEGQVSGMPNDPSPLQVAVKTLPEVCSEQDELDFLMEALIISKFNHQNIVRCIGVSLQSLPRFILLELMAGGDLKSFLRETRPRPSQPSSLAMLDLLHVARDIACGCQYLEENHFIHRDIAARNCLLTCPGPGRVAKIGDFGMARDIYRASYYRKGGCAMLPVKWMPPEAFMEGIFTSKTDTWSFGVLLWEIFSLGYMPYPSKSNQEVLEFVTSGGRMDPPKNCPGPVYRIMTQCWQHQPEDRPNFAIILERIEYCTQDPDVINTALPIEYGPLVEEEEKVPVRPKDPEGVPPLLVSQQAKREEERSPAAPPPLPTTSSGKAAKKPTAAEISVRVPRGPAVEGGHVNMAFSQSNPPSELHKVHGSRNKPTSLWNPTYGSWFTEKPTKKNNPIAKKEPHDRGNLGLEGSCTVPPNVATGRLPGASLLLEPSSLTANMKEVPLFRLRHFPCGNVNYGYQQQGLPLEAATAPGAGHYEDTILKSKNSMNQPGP

Structure (SMILES) | Activity (control) % ALK (h) (ALK (h)) [%] | Activity (control) % EGFR (h) (EGFR (h)) [%] | Activity (control) % EGFR (L858R) (h) (EGFR (L858R) (h)) [%] | Activity (control) % EGFR (T790M) (h) (EGFR (T790M) (h)) [%] | Activity (control) % EGFR (T790M, L858R) (h) (EGFR (T790M, L858R) (h)) [%]
COc1ccc(NC(=O)/C=C/CN(C)C)cc1Nc1ncc(Cl)c(Nc2ccccc2C(=O)C(=O)N(C)C)n1 [Example 80, (E)-N-(3-(5-chloro-4-(2-(2-(dimethylamino)-2-oxoacetyl)phenylamino)pyrimidin-2-ylamino)-4-methoxyphenyl)-4-(dimethylamino)but-2-enamide] | 10 | 101 | 43 | 42 | 7
C=CC(=O)Nc1ccc(OC)c(Nc2ncc(Cl)c(Nc3ccccc3C(=O)C(=O)N3CCN(C)CC3)n2)c1 [Example 89, N-(3-(5-chloro-4-(2-(2-(4-methylpiperazin-1-yl)-2-oxoacetyl)phenylamino)pyrimidin-2-ylamino)-4-methoxyphenyl)acrylamide] | 8 | 67 | 10 | 5 | 1
COc1cc(Nc2ncc(Cl)c(Nc3ccccc3C(=O)C(=O)N(C)C)n2)ccc1N1CCN(C(C)=O)CC1 [Example 94, 2-(2-(2-(4-(4-acetylpiperazin-1-yl)-3-methoxyphenylamino)-5-chloropyrimidin-4-ylamino)phenyl)-N,N-dimethyl-2-oxoacetamide] | 6 | 100 | 84 | 45 | 9
C=C(CN1CCCC1)C(=O)Nc1ccc(OC)c(Nc2ncc(Cl)c(Nc3ccccc3C(=O)C(=O)N(C)C)n2)c1 [Example 97, N-(3-(5-chloro-4-(2-(2-(dimethylamino)-2-oxoactyl)phenylamino)pyrimidin-2-ylamino)-4-methoxyphenyl)-2-(pyrrolidin-1-ylmethyl)acrylamide] | 23 | 74 | 46 | 2 | 6
C=CC(=O)Nc1cc(Nc2ncc(C)c(Nc3ccccc3C(=O)C(=O)N(C)C)n2)ccc1OC [Example 101, N-(5-(4-(2-(2-(dimethylamino)-2-oxoacetyl)phenylamino)-5-methylpyrimidin-2-ylamino)-2-methoxyphenyl)acrylamide] | 35 | 110 | 94 | 83 | 41
C=CC(=O)Nc1cc(Nc2ncc(Cl)c(Nc3ccccc3C(=O)C(=O)N(C)CCN(C)C)n2)ccc1OC [Example 102, N-(5-(5-chloro-4-(2-(2-((2-(dimethylamino)ethyl)(methyl)amino)-2-oxoactyl)phenylamino)pyrimidin-2-ylamino)-2-methoxyphenyl)acrylamide] | 5 | 98 | 57 | 40 | 5
C=CC(=O)Nc1cc(Nc2ncc(Cl)c(Nc3ccccc3C(=O)C(=O)N(C)C)n2)ccc1N1CCN(C)CC1 [Example 111, N-(5-(5-chloro-4-(2-(2-(dimethylamino)-2-oxoactyl)phenylamino)pyrimidin-2-ylamino)-2-(4-methylpiperazin-1-yl)phenyl)acrylamide] | 8 | 109 | 76 | 59 | 11
C=C(CN1CCCCC1)C(=O)Nc1cccc(Nc2ncc(Cl)c(Nc3ccccc3C(=O)C(=O)N(C)C)n2)c1 [Example 113, N-(3-(5-chloro-4-(2-(2-(dimethylamino)-2-oxoacetyl)phenylamino)pyrimidin-2-ylamino)phenyl)-2-(piperidin-1-ylmethyl)acrylamide] | 19 | 88 | 78 | 16 | 3
CN(C)C/C=C/C(=O)Nc1cccc(Nc2ncc(Cl)c(Nc3ccccc3C(=O)C(=O)N(C)C)n2)c1 [Example 114, (E)-N-(3-(5-chloro-4-(2-(2-(dimethylamino)-2-oxoacetyl)phenylamino)pyrimidin-2-ylamino)phenyl)-4-(dimethylamino)but-2-enamide] | 10 | 91 | 52 | 47 | 8
COc1cc(Nc2ncc(Cl)c(Nc3ccccc3C(=O)C(=O)N(C)C)n2)ccc1N1CCOCC1 [Example 117, 2-(2-(5-chloro-2-(3-methoxy-4-morpholinophenylamino)pyrimidin-4-ylamino)phenyl)-N,N-dimethyl-2-oxoacetamide] | 8 | 113 | 88 | 65 | 14
CCC(=O)Nc1cc(Nc2ncc(Cl)c(Nc3ccccc3C(=O)C(=O)N(C)C)n2)ccc1OCCN(C)C [Example 120, N-(5-(5-chloro-4-(2-(2-(dimethylamino)-2-oxoactyl)phenylamino)pyrimidin-2-ylamino)-2-(2-(dimethylamino)ethoxy)phenyl)propionamide] | 8 | 115 | 76 | 62 | 14
CN(C)C(=O)C(=O)c1ccccc1Nc1nc(Nc2ccc(F)c(NC(=O)CCN3CCOCC3)c2)ncc1Cl [Example 123, N-(5-(5-chloro-4-(2-(2-(dimethylamino)-2-oxoactyl)phenylamino)pyrimidin-2-ylamino)-2-fluorophenyl)-3-morpholinopropanamide] | 17 | 115 | 94 | 84 | 31
C=C(CN(C)CCN(C)C)C(=O)Nc1cccc(Nc2ncc(Cl)c(Nc3ccccc3C(=O)C(=O)N(C)C)n2)c1 [Example 125, N-(3-(5-chloro-4-(2-(2-(dimethylamino)-2-oxoacetyl)phenylamino)pyrimidin-2-ylamino)phenyl)-2-(((2-(dimethylamino)ethyl)(methyl)amino)methyl)acrylamide] | 20 | 106 | 54 | 18 | 2
C=C(CN1CCCCC1)C(=O)Nc1cc(Nc2ncc(Cl)c(Nc3ccccc3C(=O)C(=O)N(C)C)n2)ccc1N1CCOCC1 [Example 129, N-(5-(5-chloro-4-(2-(2-(dimethylamino)-2-oxoactyl)phenylamino)pyrimidin-2-ylamino)-2-morpholinophenyl)-2-(piperidin-1-ylmethyl)acrylamide] | 8 | 104 | 75 | 24 | 3
CCN(CC)C(=O)C(=O)c1ccccc1Nc1nc(Nc2ccc(N3CCN(C)CC3)c(OC)c2)ncc1Cl [Example 130, 2-(2-(5-chloro-2-(3-methoxy-4-(4-methylpiperazin-1-yl)phenylamino)pyrimidin-4-ylamino)phenyl)-N,N-diethyl-2-oxoacetamide] | 13 | 113 | 98 | 84 | 22
C=CC(=O)Nc1cc(Nc2ncc(Cl)c(Nc3ccccc3C(=O)C(=O)N(CC)CC)n2)ccc1OC [Example 132, N-(5-(5-chloro-4-(2-(2-(diethylamino)-2-oxoactyl)phenylamino)pyrimidin-2-ylamino)-2-methoxyphenyl)acrylamide] | 16 | 103 | 114 | 77 | 30
